Measurements as given in US20130149740A1, “METHOD FOR THE PRODUCTION OF A POLYMERIZED PRODUCT” (Baxter Healthcare S.A., priority 2011, published 2013).

Assays:
[1] = Viscosity and estimated capillary number of fibrin sealant components and mixes (squeezing regime); format: physicochemical; details: at 130 s^−1
Method: For these experiments, the experimental device and set-up was the same as described above. However, the liquid which is segmented by air is a mix. Raw products are fibrinogen (with methylene blue as coloring agent) and thrombin from TISSEEL kit which have to be mixed prior to segmentation. A Duploject system was applied which can be completed with a mixing device upstream the T-junction.
Under the “squeezing” regime of segmentation, the viscosities in the following table are calculated for different components, as well as the corresponding capillary numbers for mixes.

[2] = Doxorubicin living time (stability), concentration followed by fluorescence; format: physicochemical; details: in presence of fibrin
Source text: DX has some fluorescence properties which can easily be used to measure its concentration in a solution. Indeed, excited with a 470 nm light, it emits a 593 light which intensity depends on DX concentration.

| Viscosity [1] [cP] | DX living time [2] | SMILES |
| --- | --- | --- |
| 1.3 |  | [Ca+2].[Cl-].[Cl-] [CaCl2 (40 μmol/ml), CaCl2] |
|  | higher than 14 days | COc1cccc2c1C(=O)c1c(O)c3c(c(O)c1C2=O)C[C@@](O)(C(=O)CO)C[C@@H]3O[C@H]1C[C@H](N)[C@H](O)[C@H](C)O1 [DX, Doxorubicin] |
